# In patent US20100267561A1, “HERBICIDAL PYRIDAZINONE DERIVATIVES” (priority 2007, published 2010):
# Assays:
# Assay type in all cases: in vivo
# [1] = system: pigweed (Amaranthus retroflexus); test: Test A pre-/postemergence plant response
# Procedure, shortened: (§1)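 Scores reflect visual plant injury relative to untreated controls on a 0–100 scale, recorded approximately 10 days after simultaneous preemergence soil spraying and postemergence spraying of one- to two-leaf seedlings grown in loam–sand.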
# [2] = system: wheat (Triticum aestivum); test: Test A pre-/postemergence plant response
# Procedure, shortened: as §1
# [3] = system: barnyardgrass (Echinochloa crus-galli); test: Test A pre-/postemergence plant response
# Procedure, shortened: as §1
# corn (Zea mays) = test: Test A pre-/postemergence plant response
# Procedure, shortened: as §1
# [4] = system: morningglory (Ipomoea coccinea); test: Test A pre-/postemergence plant response
# Procedure, shortened: as §1
# [5] = system: pigweed (Amaranthus retroflexus); test: Test B pre-/postemergence plant response
# Procedure, shortened: (§2)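 Seeds were sown and sprayed preemergence, while plants at 2 to 18 cm (1- to 4-leaf stage) got postemergence sprays. Compounds were formulated in a non-phytotoxic solvent mixture with surfactant. After 13 to 15 days in a greenhouse, injury was rated visually against untreated controls, 0 (no effect) to 100 (complete control).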
# [6] = system: catchweed bedstraw (Galium aparine); test: Test B pre-/postemergence plant response; conditions: Preemergence, scale 0 to 100
# Procedure, shortened: as §2
# [7] = system: johnsongrass (Sorghum halepense); test: Test B pre-/postemergence plant response
# Procedure, shortened: as §2
# [8] = system: canarygrass (Phalaris minor); test: Test B postemergence plant response; conditions: Postemergence
# Procedure, shortened: (§3)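 Following treatment of plants 2 to 18 cm high after emergence, pots were held under glass for 13 to 15 days; efficacy was then graded visually, 100 denoting complete control and a dash no test result.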
# [9] = system: chickweed (Stellaria media); test: Test B postemergence plant response; conditions: Postemergence
# Procedure, shortened: as §3
# [10] = system: winter barley (Hordeum vulgare); test: Test B postemergence plant response; conditions: Postemergence
# Procedure, shortened: as §3
# [11] = system: windgrass (Apera spica-venti); test: Test B postemergence plant response; conditions: Postemergence
# Procedure, shortened: as §3
# [12] = Postemergence, 125 g ai/ha, 0 to 100 scale, 0 no effect, 100 complete control
# [13] = Postemergence, 500 g ai/ha, 0 to 100 scale, 0 no effect, 100 complete control
# [14] = Preemergence, 125 g ai/ha, 0 to 100 scale (0 no effect, 100 complete control)
# [15] = Preemergence, 500 g ai/ha, 0 to 100 scale (0 no effect, 100 complete control)
# [16] = Postemergence, 31 g ai/ha, scale 0 to 100, 0 no effect, 100 complete control
# [17] = Postemergence, 62 g ai/ha, scale 0 to 100
# [18] = Postemergence, 125 g ai/ha, scale 0 to 100
# [19] = Postemergence, 250 g ai/ha, scale 0 to 100
# [20] = Preemergence, 31 g ai/ha, 0 to 100 scale, 0 no effect, 100 complete control
# [21] = Preemergence, 62 g ai/ha, scale 0 to 100
# [22] = Preemergence, 125 g ai/ha, scale 0 to 100
# [23] = Preemergence, 250 g ai/ha, scale 0 to 100
# [24] = 31 g ai/ha, scale 0 to 100, 0 no effect, 100 complete control
compound,measurement,setting,value
Cc1cc(-c2ccc(Br)cc2)nn1-c1c(OC(=O)C2CC2)cnn(C)c1=O [Compound 5],"Plant response rating, Pigweed",[1]; [12],0
same,"Plant response rating, Pigweed",[1]; [13],0
same,"Plant response rating, Pigweed",[1]; [14],0
same,"Plant response rating, Pigweed",[1]; [15],0
same,"Plant response rating, Wheat",[2]; [12],60
same,"Plant response rating, Wheat",[2]; [13],70
same,"Plant response rating, Wheat",[2]; [14],90
same,"Plant response rating, Wheat",[2]; [15],100
same,"Plant response rating, Barnyardgrass",[3]; [12],100
same,"Plant response rating, Barnyardgrass",[3]; [13],100
same,"Plant response rating, Barnyardgrass",[3]; [14],90
same,"Plant response rating, Barnyardgrass",[3]; [15],100
same,"Plant response rating, Corn",corn (Zea mays); [12],100
same,"Plant response rating, Corn",corn (Zea mays); [13],100
same,"Plant response rating, Corn",corn (Zea mays); [14],80
same,"Plant response rating, Corn",corn (Zea mays); [15],90
same,"Plant response rating, Morningglory",[4]; [12],0
same,"Plant response rating, Morningglory",[4]; [13],0
same,"Plant response rating, Morningglory",[4]; [14],0
same,"Plant response rating, Morningglory",[4]; [15],0
same,"Plant response rating, Pigweed",[5]; [16],0
same,"Plant response rating, Pigweed",[5]; [17],0
same,"Plant response rating, Pigweed",[5]; [18],45
same,"Plant response rating, Pigweed",[5]; [19],45
same,"Plant response rating, Pigweed",[5]; [20],0
same,"Plant response rating, Pigweed",[5]; [21],0
same,"Plant response rating, Pigweed",[5]; [22],80
same,"Plant response rating, Pigweed",[5]; [23],100
same,"Plant response rating, Galium",[6]; 125 g ai/ha,80
same,"Plant response rating, Galium",[6]; 250 g ai/ha,90
same,"Plant response rating, Johnsongrass",[7]; [16],0
same,"Plant response rating, Johnsongrass",[7]; [17],0
same,"Plant response rating, Johnsongrass",[7]; [18],85
same,"Plant response rating, Johnsongrass",[7]; [19],90
same,"Plant response rating, Johnsongrass",[7]; [20],0
same,"Plant response rating, Johnsongrass",[7]; [21],100
same,"Plant response rating, Johnsongrass",[7]; [22],100
same,"Plant response rating, Johnsongrass",[7]; [23],100
same,"Plant response rating, Canarygrass",[8]; [24],80
same,"Plant response rating, Canarygrass","[8]; 62 g ai/ha, scale 0 to 100",100
same,"Plant response rating, Canarygrass","[8]; 125 g ai/ha, scale 0 to 100",100
same,"Plant response rating, Canarygrass","[8]; 250 g ai/ha, scale 0 to 100",100
same,"Plant response rating, Chickweed",[9]; [24],0
same,"Plant response rating, Chickweed","[9]; 62 g ai/ha, scale 0 to 100",0
same,"Plant response rating, Chickweed","[9]; 125 g ai/ha, scale 0 to 100",0
same,"Plant response rating, Chickweed","[9]; 250 g ai/ha, scale 0 to 100",0
same,"Plant response rating, Barley",[10]; [24],30
same,"Plant response rating, Barley","[10]; 62 g ai/ha, scale 0 to 100",90
same,"Plant response rating, Barley","[10]; 125 g ai/ha, scale 0 to 100",95
same,"Plant response rating, Barley","[10]; 250 g ai/ha, scale 0 to 100",95
same,"Plant response rating, Windgrass",[11]; [24],95
same,"Plant response rating, Windgrass","[11]; 62 g ai/ha, scale 0 to 100",100
same,"Plant response rating, Windgrass","[11]; 125 g ai/ha, scale 0 to 100",100
same,"Plant response rating, Windgrass","[11]; 250 g ai/ha, scale 0 to 100",100
